Assay results as given in patent publication US20050136020A1, “Silicone-free long-lasting shine hair care compositions” (priority 2003, published 2005).

Key:
Index of refraction = assay type: physicochemical
Procedure: Preferably, the hair care compositions of the present invention have PEG/PPG-8/3 Laurate. […] Refractive index impacts the overall clarity of the present composition. It is preferred to have an aqueous-based composition with a clear color for aesthetic appeal. The hair care compositions of the present invention have a Shine Index of at least 5 hours, preferably about 8 or more hours, and most preferably up to 18 hours or more, thereby providing for extended life shine. “Shine Index” as used herein is the length of time shine persists on treated hair, as evaluated in the test protocol described in Example 1.

[1] = Solubility and visual clarity of PEG/PPG-8/3 Laurate in water and oils; assay type: physicochemical
Procedure: Solubility is the ability of one substance to blend uniformly with another, e.g. solid in liquid or liquid in liquid. Clarity is determined visually. A turbidity meter may be used to measure clarity if the system is not absolutely clear. The solubility of PEG/PPG-8/3 Laurate is up to fifty percent (50%) in water. […] The solubility of PEG/PPG-8/3 Laurate is up to ten percent (10%) in sunflower oil and in castor oil. […] In soybean oil, it is clear at five percent (5%) and slightly hazy at ten percent (10%).

index of refraction (Index of refraction): about 1.456
solubility in castor oil ([1]; in castor oil): ≤ 10%
clarity (visual) in soybean oil at 5% ([1]; in soybean oil, five percent (5%)): clear
clarity (visual) in soybean oil at 10% ([1]; in soybean oil, ten percent (10%)): slightly hazy
clarity (visual) in sunflower and castor oil ([1]; in sunflower and castor oil, up to its solubility limit): clear and homogenous
solubility in sunflower oil ([1]; in sunflower oil): ≤ 10%
solubility in water ([1]; in water): ≤ 50%
clarity (visual) in water ([1]; in water, at concentrations up to its solubility limit): clear and homogeneous
Substance: PEG/PPG-8/3 Laurate
